Laboratory results from the NIST ThermoML archive (doi:10.1016/j.jct.2012.04.020).
Where “and” joins values, the source holds several entries; their conditions need not be identical. Identical values can stand only once. ± gives the expanded uncertainty stated by the source.

Assay: mn = molality of the nth substance listed, in mol/kg
Details: 101 kPa, Liquid; for speed of sound: Sing-around technique in a fixed-path interferometer; for mass density: Vibrating tube method

NCC(=O)O [2-aminoacetic acid] + O
Details	mass density, m1 = 0.04978 [kg/m3]	mass density, m1 = 0.1472 [kg/m3]	mass density, m1 = 0.2507 [kg/m3]	mass density, m1 = 0.3018 [kg/m3]	mass density, m1 = 0.3521 [kg/m3]	speed of sound, m1 = 0.04978 [m/s]	speed of sound, m1 = 0.1472 [m/s]	speed of sound, m1 = 0.2507 [m/s]	speed of sound, m1 = 0.3018 [m/s]	speed of sound, m1 = 0.3521 [m/s]
288.15 K	1000.74 ± 0.13	1003.87 ± 0.13	1007.09 ± 0.13	1008.62 ± 0.13	1010.01 ± 0.13	1484.9 ± 1	1490.1 ± 1	1495.3 ± 1	1497.7 ± 1	1500 ± 1
298.15 K	998.674 ± 0.13	1001.73 ± 0.13	1004.79 ± 0.13	1006.26 ± 0.13	1007.54 ± 0.13	1499 ± 1	1503.6 ± 1	1508.3 ± 1	1510.3 ± 1	1512.3 ± 1
308.15 K	995.639 ± 0.13	998.704 ± 0.13	1001.69 ± 0.13	1003 ± 0.13	1004.15 ± 0.13	1521.8 ± 1	1526 ± 1	1530.5 ± 1	1532.4 ± 1	1534.3 ± 1
318.15 K	991.801 ± 0.13	994.854 ± 0.13	997.838 ± 0.13	999.157 ± 0.13	1000.43 ± 0.13	1538.6 ± 1	1542.8 ± 1	1547 ± 1	1549.3 ± 1	1550.9 ± 1

C[C@H](N)C(=O)O [(S)-2-aminopropanoic acid] + O
mass density [kg/m3]
Details	m1 = 0.05014	m1 = 0.15	m1 = 0.2505	m1 = 0.303	m1 = 0.3456
288.15 K	1000.65 ± 0.13	1003.65 ± 0.13	1006.52 ± 0.13	1007.97 ± 0.13	1009.14 ± 0.13
298.15 K	998.59 ± 0.13	1001.56 ± 0.13	1004.42 ± 0.13	1005.85 ± 0.13	1006.98 ± 0.13
308.15 K	995.554 ± 0.13	998.483 ± 0.13	1001.31 ± 0.13	1002.74 ± 0.13	1003.86 ± 0.13
318.15 K	991.648 ± 0.13	994.399 ± 0.13	997.067 ± 0.13	998.365 ± 0.13	999.359 ± 0.13

O=P([O-])([O-])O.[K+].[K+] [dipotassium hydrogen phosphate] + O
Details	mass density, 288.15 K	mass density, 298.15 K	mass density, 308.15 K	mass density, 318.15 K	speed of sound, 288.15 K	speed of sound, 298.15 K	speed of sound, 308.15 K	speed of sound, 318.15 K
m1 = 0.2	1031.93 ± 0.15 kg/m3 and 1029.08 ± 0.14 kg/m3	1029.32 ± 0.14 kg/m3 and 1026.51 ± 0.14 kg/m3	1025.9 ± 0.14 kg/m3 and 1023.13 ± 0.14 kg/m3	1021.79 ± 0.14 kg/m3 and 1018.99 ± 0.14 kg/m3	1502.7 ± 1 m/s and 1500 ± 1 m/s	1530.6 ± 1 m/s and 1528.2 ± 1 m/s	1551.8 ± 1 m/s and 1549.3 ± 1 m/s	1566.8 ± 1 m/s and 1564.2 ± 1 m/s
m1 = 0.4	1057.5 ± 0.16 kg/m3 and 1061.39 ± 0.16 kg/m3	1054.52 ± 0.16 kg/m3 and 1058.35 ± 0.16 kg/m3	1054.54 ± 0.16 kg/m3 and 1050.82 ± 0.16 kg/m3	1050.25 ± 0.16 kg/m3 and 1046.5 ± 0.15 kg/m3	1531 ± 1 m/s and 1535 ± 1 m/s	1557 ± 1 m/s and 1560.8 ± 1 m/s	1580.1 ± 1 m/s and 1576.5 ± 1 m/s	1593.7 ± 1 m/s and 1590.2 ± 1 m/s
m1 = 0.6	1084.12 ± 0.18 kg/m3 and 1093.21 ± 0.18 kg/m3	1080.78 ± 0.18 kg/m3 and 1089.76 ± 0.18 kg/m3	1076.82 ± 0.17 kg/m3 and 1085.71 ± 0.18 kg/m3	1072.29 ± 0.17 kg/m3 and 1081.11 ± 0.18 kg/m3	1560.3 ± 1 m/s and 1570.8 ± 1 m/s	1584.4 ± 1 m/s and 1594.5 ± 1.1 m/s	1602.3 ± 1.1 m/s and 1611.8 ± 1.1 m/s	1614.7 ± 1.1 m/s and 1623.6 ± 1.1 m/s
m1 = 0.8	1113.94 ± 0.2 kg/m3 and 1116.48 ± 0.2 kg/m3	1110.27 ± 0.19 kg/m3 and 1112.77 ± 0.2 kg/m3	1106.04 ± 0.19 kg/m3 and 1108.53 ± 0.19 kg/m3	1101.38 ± 0.19 kg/m3 and 1103.81 ± 0.19 kg/m3	1594.2 ± 1.1 m/s and 1597.3 ± 1.1 m/s	1616.3 ± 1.1 m/s and 1619.1 ± 1.1 m/s	1632.4 ± 1.1 m/s and 1635 ± 1.1 m/s	1643.2 ± 1.1 m/s and 1645.5 ± 1.1 m/s
